Source: paper PMC11845761, “Intestinal human carboxylesterase 2 (CES2) expression rescues drug metabolism and most metabolic syndrome phenotypes in global Ces2 cluster knockout mice” (Acta Pharmacologica Sinica, 2024)
Marks after values point to notes of the source that are not given here.

Legend:
[1] = Tissue concentrations of vinorelbine and deacetylvinorelbine 4 h after i.v. vinorelbine in CES2-modified mice; assay type: in vivo, mouse; conditions: i.v. vinorelbine 10 mg/kg
Procedure: (§1) For capecitabine 2-h experiments, 6–7 female mice received oral capecitabine (500 mg/kg, 10 μL/g), and tail vein blood samples were collected at 0.125, 0.25, 0.5 and 1 h after drug administration. For the vinorelbine 4-h experiment, 6-7 male mice received vinorelbine intravenously (10 mg/kg, 5 μL/g) or orally (10 mg/kg, 10 μL/g) using a blunt-ended needle. Tail vein blood samples were collected at 0.125, 0.25, 0.5, 1 and 2 h after drug administration. […] At the last time point in each experiment (2 or 4 h), mice were anesthetized with 5% isoflurane and blood was collected by cardiac puncture. […] Plasma was isolated from the blood by centrifugation at 9000 × g for 6 min at 4 °C, and the plasma fraction was collected and stored at −30 °C until analysis.
(§2) Concentrations of capecitabine (and its metabolites) and vinorelbine (and its metabolite) in mouse plasma samples and organ homogenates were determined using two independent validated high-performance liquid chromatography-tandem mass spectrometry assays.
(§3) Pharmacokinetic parameters were calculated by non-compartmental methods using the PK solver software. […] Differences were considered statistically significant when P < 0.05. All data are presented as mean ± SD.

[2] = Plasma pharmacokinetics of vinorelbine and deacetylvinorelbine after i.v. vinorelbine in CES2-modified mice; conditions: i.v. vinorelbine 10 mg/kg; for AUC0-4h / AUC0-4h ratio (× 10^−3) (deacetylvinorelbine/vinorelbine) / Cmax / Tmax: plasma
Procedure: In order to minimize variation among individuals, mice were fasted for 3 h before drug was administered orally or intravenously. […] For the vinorelbine 4-h experiment, 6-7 male mice received vinorelbine intravenously (10 mg/kg, 5 μL/g) or orally (10 mg/kg, 10 μL/g) using a blunt-ended needle. […] Time points of termination were chosen to allow both reasonable assessment of the plasma exposure of the compound and its main metabolites, and adequate measurement of tissue concentrations. In order to minimize the generation and use of mice, and as no pronounced sex differences were expected, female mice were used for the capecitabine studies and male mice for the vinorelbine studies. Tail vein blood sample collection (~50 μL) was performed using microvettes containing dipotassium-EDTA. All blood samples were rapidly placed on ice to limit any ongoing hydrolysis. At the last time point in each experiment (2 or 4 h), mice were anesthetized with 5% isoflurane and blood was collected by cardiac puncture. Cardiac puncture blood samples (600–800 μL) were collected in Eppendorf tubes containing heparin as an anticoagulant. The mice were then sacrificed by cervical dislocation and brain, liver, kidney, lung, small intestine and testis were rapidly removed. Plasma was isolated from the blood by centrifugation at 9000 × g for 6 min at 4 °C, and the plasma fraction was collected and stored at −30 °C until analysis. Organs were homogenized with 4% (w/v) bovine serum albumin and stored at −30 °C until analysis. Relative metabolite-to-parental drug ratio after drug administration was calculated by determining metabolite tissue concentration relative to corresponding parental drug concentration at the last time point.
as §2
Pharmacokinetic parameters were calculated by non-compartmental methods using the PK solver software. The area under the plasma concentration-time curve (AUC) was calculated using the trapezoidal rule, without extrapolating to infinity. The peak plasma concentration (Cmax) and the time of maximum plasma concentration (Tmax) were estimated from the original (individual mouse) data. One-way analysis of variance (ANOVA) was used when multiple groups were compared and the Tukey’s test post hoc correction was used to accommodate multiple testing. The two-sided unpaired Student’s t-test was used when treatments or differences between two specific groups were compared. Kruskal-Wallis rank test was used for semi-quantitative assessment for (H&E)-staining of white adipose tissue and Oil Red O-staining of liver. All statistical analyses were performed using the software GraphPad Prism 8 (GraphPad Software Inc., La Jolla, CA, USA). All the linear data were log-transformed before statistical tests were applied. Differences were considered statistically significant when P < 0.05. All data are presented as mean ± SD.

[3] = set-up: method as in PMID 11822766; conditions: 24 patients; oral vinorelbine 80 mg/m^2; cited from earlier work
[4] = Plasma pharmacokinetics of vinorelbine and deacetylvinorelbine after oral vinorelbine in CES2-modified mice; assay type: in vivo, mouse; conditions: oral vinorelbine 10 mg/kg; for AUC0-4h / AUC0-4h ratio (× 10^−3) (deacetylvinorelbine/vinorelbine) / Cmax / Tmax: plasma
Procedure: as §1, §2, §3

SMILES: CCC1=C[C@@H]2CN(C1)Cc1c([nH]c3ccccc13)[C@@](C(=O)OC)(c1cc3c(cc1OC)N(C)[C@H]1[C@@](O)(C(=O)OC)[C@H](O)[C@]4(CC)C=CCN5CC[C@]31[C@@H]54)C2 [Deacetylvinorelbine, 4’-O-deacetylvinorelbine]
- liver deacetylvinorelbine-to-vinorelbine ratio ([1]; male Ces2^–/–A mice): 0.025 ± 0.0070
- small intestine conversion ratio (deacetylvinorelbine-to-vinorelbine) ([1]; male Ces2^–/–A mice): 0.014 ± 0.001
- CSI (small intestine tissue concentration) ([1]; male Ces2^–/–V mice): 134 ± 47***^ ng/g
- CSIC (small intestine contents concentration) ([1]; male Ces2^–/–V mice): 511 ± 322 ng/g
- Ccolon (colon concentration) ([1]; male Ces2^–/–V mice): 120 ± 45***^ ng/g
- Cliver (liver concentration) ([1]; male Ces2^–/–V mice): 513 ± 61 ng/g
- Colon Ratio (x 10^-3) (deacetylvinorelbine /vinorelbine) ([1]; male Ces2^–/–V mice): 17 ± 4.7***^^ x 10^-3
- Liver Ratio (x 10^-3) (deacetylvinorelbine /vinorelbine) ([1]; male Ces2^–/–V mice): 22 ± 6.6 x 10^-3
- Small intestine Ratio (x 10^-3) (deacetylvinorelbine /vinorelbine) ([1]; male Ces2^–/–V mice): 17 ± 2.2***^^ x 10^-3
- Small intestine contents Ratio (x 10^-3) (deacetylvinorelbine /vinorelbine) ([1]; male Ces2^–/–V mice): 10 ± 1.0 x 10^-3
- liver deacetylvinorelbine-to-vinorelbine ratio ([1]; male Ces2^–/–V mice): 0.022 ± 0.007
- small intestine conversion ratio (deacetylvinorelbine-to-vinorelbine) ([1]; male Ces2^–/–V mice): 0.017 ± 0.002
- CSI (small intestine tissue concentration) ([1]; male wild-type mice): 2214 ± 605 ng/g
- CSIC (small intestine contents concentration) ([1]; male wild-type mice): 27594 ± 13421 ng/g
- Ccolon (colon concentration) ([1]; male wild-type mice): 780 ± 199 ng/g
- Cliver (liver concentration) ([1]; male wild-type mice): 26773 ± 10517 ng/g
- Colon Ratio (x 10^-3) (deacetylvinorelbine /vinorelbine) ([1]; male wild-type mice): 340 ± 70 x 10^-3
- Liver Ratio (x 10^-3) (deacetylvinorelbine /vinorelbine) ([1]; male wild-type mice): 2500 ± 1300 x 10^-3
- Small intestine Ratio (x 10^-3) (deacetylvinorelbine /vinorelbine) ([1]; male wild-type mice): 630 ± 46 x 10^-3
- Small intestine contents Ratio (x 10^-3) (deacetylvinorelbine /vinorelbine) ([1]; male wild-type mice): 1000 ± 270 x 10^-3
- liver deacetylvinorelbine-to-vinorelbine ratio ([1]; male wild-type mice): 2.5 ± 1.3
- small intestine conversion ratio (deacetylvinorelbine-to-vinorelbine) ([1]; male wild-type mice): 0.63 ± 0.05
- AUC0-4h ([2]; male Ces2^–/– mice): 10.1 ± 2.3 ng·h/mL
- AUC0-4h ratio (× 10^−3) (deacetylvinorelbine/vinorelbine) ([2]; male Ces2^–/– mice): 1.7 ± 0.2 × 10^−3
- Cmax ([2]; male Ces2^–/– mice): 5.9 ± 1.4 ng/mL
- Tmax ([2]; male Ces2^–/– mice): 0.13 ± 0.00 h
- plasma AUC0-4h, fold decrease vs wild-type ([2]; male Ces2^–/–A mice): 55.5 fold
- AUC0-4h ([2]; male Ces2^–/–A mice): 12.0 ± 3.8 ng·h/mL
- AUC0-4h ratio (× 10^−3) (deacetylvinorelbine/vinorelbine) ([2]; male Ces2^–/–A mice): 2.2 ± 0.5 × 10^−3
- Cmax ([2]; male Ces2^–/–A mice): 7.6 ± 2.7 ng/mL
- Tmax ([2]; male Ces2^–/–A mice): 0.25 ± 0.19 h
- plasma AUC0-4h, fold decrease vs wild-type ([2]; male Ces2^–/–V mice): 41.1 fold
- AUC0-4h ([2]; male Ces2^–/–V mice): 16.2 ± 8.4 ng·h/mL
- AUC0-4h ratio (× 10^−3) (deacetylvinorelbine/vinorelbine) ([2]; male Ces2^–/–V mice): 1.7 ± 0.2 × 10^−3
- Cmax ([2]; male Ces2^–/–V mice): 8.2 ± 3.5 ng/mL
- Tmax ([2]; male Ces2^–/–V mice): 0.17 ± 0.07 h
- AUC0-4h ([2]; male wild-type mice): 666 ± 138 ng·h/mL
- AUC0-4h ratio (× 10^−3) (deacetylvinorelbine/vinorelbine) ([2]; male wild-type mice): 110 ± 60 × 10^−3
- Cmax ([2]; male wild-type mice): 346 ± 104 ng/mL
- Tmax ([2]; male wild-type mice): 0.46 ± 0.76 h
- plasma Cmax [3]: 9.1 ± 3.3 ng/mL
- AUC0-4h ([4]; male Ces2^–/– mice): 1.0 ± 0.4 ng·h/mL
- AUC0-4h ratio (× 10^−3) (deacetylvinorelbine/vinorelbine) ([4]; male Ces2^–/– mice): 2.0 ± 0.4 × 10^−3
- Cmax ([4]; male Ces2^–/– mice): 0.42 ± 0.15 ng/mL
- Tmax ([4]; male Ces2^–/– mice): 3.7 ± 0.8 h
- AUC0-4h ([4]; male Ces2^–/–A mice): 3.7 ± 2.2 ng·h/mL
- AUC0-4h ratio (× 10^−3) (deacetylvinorelbine/vinorelbine) ([4]; male Ces2^–/–A mice): 6.3 ± 7.8 × 10^−3
- Cmax ([4]; male Ces2^–/–A mice): 1.5 ± 1.1 ng/mL
- Tmax ([4]; male Ces2^–/–A mice): 2.6 ± 1.0 h
- AUC0-4h ([4]; male Ces2^–/–V mice): 3.3 ± 2.3 ng·h/mL
- AUC0-4h ratio (× 10^−3) (deacetylvinorelbine/vinorelbine) ([4]; male Ces2^–/–V mice): 5.3 ± 1.9 × 10^−3
- Cmax ([4]; male Ces2^–/–V mice): 1.4 ± 1.2 ng/mL
- Tmax ([4]; male Ces2^–/–V mice): 2.7 ± 1.0 h
- plasma AUC0-4h, fold increase in Ces2^–/–A compared with Ces2^–/– mice ([4]; male mice): 3.7 fold
- plasma AUC0-4h, fold increase in Ces2^–/–V compared with Ces2^–/– mice ([4]; male mice): 3.3 fold
- AUC0-4h ([4]; male wild-type mice): 238 ± 112 ng·h/mL
- AUC0-4h ratio (× 10^−3) (deacetylvinorelbine/vinorelbine) ([4]; male wild-type mice): 640 ± 170 × 10^−3
- Cmax ([4]; male wild-type mice): 91 ± 44 ng/mL
- Tmax ([4]; male wild-type mice): 1.7 ± 0.7 h
